Values quoted from earlier work in patent publication US10507188B2, “Particles containing an opioid receptor antagonist and methods of use” (priority 2008, dated 2019).

Conditions: white crystalline powder, typically the bromide salt (Mallinckrodt)

C[N+]1(CC2CC2)CCC23c4c5ccc(O)c4OC2C(=O)CCC3(O)C1C5 (stereo not shown) [MNTX, N-methylnaltrexone]
solubility in water: freely soluble in water
